# Measured values taken from patent US20260285850A1, “SUBSTITUTED OXAZOLIDINONES AND IMIDAZOLINONES AS HERBICIDES” (FMC CORPORATION, priority 2023, published 2026).
# Columns and labels:
# Assay type in all cases: in vivo
# [1] = system: oat, wild (wild oat, Avena fatua); assay: Test A postemergence application, visual injury rating 0-100
# Method in brief: (§1)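 Compound in a non-phytotoxic, surfactant-containing solvent is applied either as a directed soil spray before seedlings emerge or onto emerged plants 2-10 cm tall; pots hold a loam-sand blend. Plants grow 10 days under greenhouse conditions and are rated by eye against untreated controls (0 no effect, 100 complete control).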
# [2] = system: galium (catchweed bedstraw, Galium aparine); assay: as above
# Method in brief: as §1
# [3] = system: barnyardgrass (Echinochloa crus-galli); assay: as above
# Method in brief: as §1
# [4] = system: horseweed (Erigeron canadensis); assay: as above
# Method in brief: as §1
# soybean (Glycine max) [5] = assay: as above
# Method in brief: as §1
# [6] = system: ryegrass, Italian (italian ryegrass, Lolium multiflorum); assay: as above
# Method in brief: as §1
# [7] = system: blackgrass (Alopecurus myosuroides); assay: as above
# Method in brief: as §1
# [8] = system: ragweed (common ragweed, Ambrosia artemisiifolia); assay: as above
# Method in brief: as §1
# corn (Zea mays) [9] = assay: as above
# Method in brief: as §1
# kochia (Bassia scoparia) [10] = assay: as above
# Method in brief: as §1
# [11] = system: palmer (palmer amaranth, palmer pigweed, Amaranthus palmeri); assay: as above
# Method in brief: as §1
# [12] = system: green foxtail (Setaria viridis); assay: as above
# Method in brief: as §1
# [13] = system: wheat (Triticum aestivum); assay: as above
# Method in brief: as §1
# [14] = system: oat, wild (wild oat, Avena fatua); assay: Test A preemergence soil spray, visual injury rating 0-100; details: 10 days
# Method in brief: as §1
# [15] = system: barnyardgrass (Echinochloa crus-galli); assay: as above; details: 10 days
# Method in brief: as §1
# soybean (Glycine max) [16] = assay: as above; details: 10 days
# Method in brief: as §1
# [17] = system: ryegrass, Italian (italian ryegrass, Lolium multiflorum); assay: as above; details: 10 days
# Method in brief: as §1
# [18] = system: blackgrass (Alopecurus myosuroides); assay: as above; details: 10 days
# Method in brief: as §1
# [19] = system: ragweed (common ragweed, Ambrosia artemisiifolia); assay: as above; details: 10 days
# Method in brief: as §1
# corn (Zea mays) [20] = assay: as above; details: 10 days
# Method in brief: as §1
# kochia (Bassia scoparia) [21] = assay: as above; details: 10 days
# Method in brief: as §1
# [22] = system: palmer (palmer amaranth, palmer pigweed, Amaranthus palmeri); assay: as above; details: 10 days
# Method in brief: as §1
# [23] = system: green foxtail (Setaria viridis); assay: as above; details: 10 days
# Method in brief: as §1
# [24] = system: wheat (Triticum aestivum); assay: as above; details: 10 days
# Method in brief: as §1
# rice (Oryza sativa) = assay: Test B flooded paddy test, visual plant response rating 0-100; details: 250 g ai/ha, Flood, applied to paddy water, evaluated after 13 days
# Method in brief: (§2)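 Plants were grown to the 2-leaf stage, then pots were flooded to 3 cm above the soil and compound was applied directly to the paddy water, with that depth kept throughout.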
# [25] = system: ducksalad (Heteranthera limosa); assay: as above; details: 250 g ai/ha, Flood, applied to paddy water, evaluated after 13 days
# Method in brief: as §2
# [26] = system: sedge, umbrella (small-flower umbrella sedge, Cyperus difformis); assay: as above; details: 250 g ai/ha, Flood, applied to paddy water, evaluated after 13 days
# Method in brief: as §2
# [27] = system: barnyardgrass (Echinochloa crusgalli); assay: as above; details: 250 g ai/ha, Flood, applied to paddy water, evaluated after 13 days
# Method in brief: as §2
# [28] = 62 g ai/ha, postemergence, 10 days, 0 = no effect, 100 = complete control
# [29] = Postemergence, 16 g ai/ha, greenhouse 10 days, 0 no effect, 100 complete control
# [30] = 62 g ai/ha, 0 = no effect, 100 = complete control
smiles,measurement,setting,value
COC(=O)C1C=CC(NC(=O)C2(C)CN(c3cc(Cl)c(F)c(Cl)c3)C(=O)O2)C1 (stereo not shown) [Compound 150],"Oat, Wild plant response rating (0-100)",[1]; [28],90
same,"Oat, Wild plant response rating (0 to 100 scale)",[1]; [29],60
same,Galium plant response rating (0-100),[2]; [28],80
same,Galium plant response rating (0 to 100 scale),[2]; [29],70
same,Barnyardgrass plant response rating (0-100),[3]; [28],100
same,Barnyardgrass plant response rating (0 to 100 scale),[3]; [29],90
same,Horseweed plant response rating (0-100),[4]; [28],60
same,Horseweed plant response rating (0 to 100 scale),[4]; [29],20
same,Soybean plant response rating (0-100),soybean (Glycine max) [5]; [28],70
same,Soybean plant response rating (0 to 100 scale),soybean (Glycine max) [5]; [29],60
same,"Ryegrass, Italian plant response rating (0-100)",[6]; [28],80
same,"Ryegrass, Italian plant response rating (0 to 100 scale)",[6]; [29],50
same,Blackgrass plant response rating (0-100),[7]; [28],90
same,Blackgrass plant response rating (0 to 100 scale),[7]; [29],80
same,Ragweed plant response rating (0-100),[8]; [28],50
same,Ragweed plant response rating (0 to 100 scale),[8]; [29],0
same,Corn plant response rating (0-100),corn (Zea mays) [9]; [28],100
same,Corn plant response rating (0 to 100 scale),corn (Zea mays) [9]; [29],100
same,Kochia plant response rating (0-100),kochia (Bassia scoparia) [10]; [28],70
same,Kochia plant response rating (0 to 100 scale),kochia (Bassia scoparia) [10]; [29],20
same,"Pigweed, Palmer plant response rating (0-100)",[11]; [28],60
same,"Pigweed, Palmer plant response rating (0 to 100 scale)",[11]; [29],40
same,"Foxtail, Green plant response rating (0-100)",[12]; [28],90
same,"Foxtail, Green plant response rating (0 to 100 scale)",[12]; [29],20
same,Wheat plant response rating (0-100),[13]; [28],90
same,Wheat plant response rating (0 to 100 scale),[13]; [29],70
same,"Oat, Wild plant response rating","[14]; 16 g ai/ha, 0 to 100 scale",0
same,"Oat, Wild plant response rating (0-100)",[14]; [30],10
same,Barnyardgrass plant response rating,"[15]; 16 g ai/ha, 0 to 100 scale",0
same,Barnyardgrass plant response rating (0-100),[15]; [30],90
same,Soybean plant response rating,"soybean (Glycine max) [16]; 16 g ai/ha, 0 to 100 scale",0
same,Soybean plant response rating (0-100),soybean (Glycine max) [16]; [30],0
same,"Ryegrass, Italian plant response rating","[17]; 16 g ai/ha, 0 to 100 scale",10
same,"Ryegrass, Italian plant response rating (0-100)",[17]; [30],50
same,Blackgrass plant response rating,"[18]; 16 g ai/ha, 0 to 100 scale",0
same,Blackgrass plant response rating (0-100),[18]; [30],50
same,Ragweed plant response rating,"[19]; 16 g ai/ha, 0 to 100 scale",0
same,Ragweed plant response rating (0-100),[19]; [30],0
same,Corn plant response rating,"corn (Zea mays) [20]; 16 g ai/ha, 0 to 100 scale",0
same,Corn plant response rating (0-100),corn (Zea mays) [20]; [30],70
same,Kochia plant response rating,"kochia (Bassia scoparia) [21]; 16 g ai/ha, 0 to 100 scale",20
same,Kochia plant response rating (0-100),kochia (Bassia scoparia) [21]; [30],90
same,"Pigweed, Palmer plant response rating","[22]; 16 g ai/ha, 0 to 100 scale",10
same,"Pigweed, Palmer plant response rating (0-100)",[22]; [30],90
same,"Foxtail, Green plant response rating","[23]; 16 g ai/ha, 0 to 100 scale",0
same,"Foxtail, Green plant response rating (0-100)",[23]; [30],90
same,Wheat plant response rating,"[24]; 16 g ai/ha, 0 to 100 scale",0
same,Wheat plant response rating (0-100),[24]; [30],80
same,"Plant response rating, Rice (0 to 100 scale, 0 is no effect and 100 is complete control)",rice (Oryza sativa),30
same,"Plant response rating, Ducksalad (0 to 100 scale, 0 is no effect and 100 is complete control)",[25],85
same,"Plant response rating, Sedge, Umbrella (0 to 100 scale, 0 is no effect and 100 is complete control)",[26],75
same,"Plant response rating, Barnyardgrass (0 to 100 scale, 0 is no effect and 100 is complete control)",[27],65
